Assay results: patent publication US20260090983A1, “PARENTERAL NUTRITION FORMULATION” (Baxter International Inc., priority 2018, published 2026)
Entries after “also recorded” stand apart in the source; their conditions may differ. Like-named read-outs stand apart in the source and are kept apart here.

How the values were obtained:
[1] = tested on: male Sprague-Dawley rats with steatosis, induced by choline and methionine deficient (MCD) diet; assay: Aminotransferase (ALT) activity in plasma during parenteral nutrition; assay type: in vivo; settings: for development of ALT activity from day 5 to day 17 (FIG. 2): Step #2, LE 10% without or with choline derivative "high" 31 mmol/L, plasma after 5 and 17 days of parenteral nutrition
Experimental: ALT activity is determined by a modification recommended by the International Federation of Clinical Chemistry (IFCC), see also Example 2. ALT catalyzes the reaction of alpha-ketoglutarate with L-alanine to form L-glutamate and pyruvate. Under the action of LDH, pyruvate converts to lactate, and NADH is converted to NAD. The decrease in absorbance of NADH, measured at 340 nm (secondary wavelength is 700 nm), is directly proportional to the serum activity of ALT. It is a kinetic reaction. In general, serum is used for analysis. The serum is separated from the cells within 2 hours of collection and stored at -70° C. until assayed. Monitoring the ALT activity over time in an animal model is used herein as one straightforward and conclusive way to determine the efficacy of GPC in treating liver disease, specifically liver damage caused by a choline-deficient diet (Examples 1 and 2, FIGS. 2 and 3). The effects of GPC as well as of the combination of DHA, ARA and GPC were investigated in a sick animal model, wherein male Sprague-Dawley rats with steatosis, induced by choline and methionine deficient (MCD) diet (S SNIFF MCD pelleted choline/methionine deficient diet (SSNIFF Spezialdiäten GmbH, Soest, Germany, Product No. E15653-94)) were kept on parenteral nutrition. Steatosis was confirmed in the respective groups by histopathology (Example 3). Parenteral nutrition started after 14 days under MCD diet. First measurements were done after 5 days of parenteral nutrition, followed by measurements after 9 and 17 days. The daily lipid uptake was 2.31 g/kg/d. The rats were split into several groups as set forth below in Table I. Two groups served as control groups, wherein a first group was treated with saline solution (0.90% w/v of NaCl in water for injection). A second group received a lipid emulsion (“LE 10%”) containing refined olive oil (80.0 g/L) and refined soybean oil (20.0 g/L) in water for injection, pH 6-8; LE 10% further contained egg lecithin (6.0 g/L), glycerol (11.25 g/L) and sodium oleate (0.15 g/L). LE 10% contained 100 g/L lipids. […] CDP-choline (prepared by fermentation) was from TCI Europe N.V. (Antwerp, Belgium). […] DHA (from algae, Schizochytrium sp.) and ARA (from fungi, Mortierella alpina) were purchased from BASF AG, Germany. Vitamin E was purchased from […].) […] As described before, liver damage (cholestasis) may be determined by increased aminotransferase levels. ALT activity was determined with an AD VIA 1800 blood biochemistry analyzer/IFCC modified (SIEMENS®) according to standard protocols such as described before.

[2] = tested on: male Sprague-Dawley rats with steatosis, induced by choline and methionine deficient (MCD) diet; assay: Histopathological grading of hepatocellular vacuolation of the liver; assay type: in vivo; settings: for histopathological examination of the liver, vacuolation (FIG. 4A): Step #2
Experimental: A part of the liver was preserved in buffered formalin, the infusion sites and the sampled macroscopic lesions were trimmed according to the RITA guidelines, where applicable (Ruchl-Fehlert et al., Exp Toxic Pathol 2003; 5 5, 91-106), embedded in paraffin wax, sectioned at a thickness of approximately four microns and stained with hematoxylin-eosin. The frozen liver sample was cryosectioned in slides of approximately five microns and stained by Oil Red O. Tissue processing was performed at Citoxlab, France.
A microscopic examination was performed on both slides (hematoxylin eosin and Oil Red O) of the liver, the infusion sites and the macroscopic lesions from all animals of the study. Peer review was performed on at least 30% of the animals from the high-dose group and on an adequate number of slides from identified target organs to confirm that findings recorded by the Study Pathologist were consistent and accurate.
Liver samples taken after 8 and 15 days, respectively, were examined as described above and assigned to five grades of hepatocellular vacuolation. Vacuolation was generally diffuse and affected all regions for Grade 5. Periportal areas were lesser affected and the vacuoles were smaller in size for lower grades. Grades have been assigned according to the following definition:

[3] = tested on: male Sprague-Dawley rats with steatosis, induced by choline and methionine deficient (MCD) diet; assay: Development of liver weight versus body weight; assay type: in vivo; settings: LE 10% without or with choline derivative "high": 31 mmol/L
Source text: The effects of GPC as well as of the combination of DHA, ARA and GPC were investigated in a sick animal model, wherein male Sprague-Dawley rats with steatosis, induced by choline and methionine deficient (MCD) diet (S SNIFF MCD pelleted choline/methionine deficient diet (SSNIFF Spezialdiäten GmbH, Soest, Germany, Product No. E15653-94)) were kept on parenteral nutrition.
Parenteral nutrition started after 14 days under MCD diet. First measurements were done after 5 days of parenteral nutrition, followed by measurements after 9 and 17 days. The daily lipid uptake was 2.31 g/kg/d. The rats were split into several groups as set forth below in Table I.
The study groups as described in Example 1 were further evaluated with regard to the development of liver weight versus body weight. An increase in liver weight which is not proportional to the increase of body weight is typical for the development of liver damage, specifically steatosis, as described before.

[4] = for Stability upon sterilization (Comment): heat sterilization; for stability of the lipid emulsions during sterilization (heat), in words: lipid emulsions prepared as in Example 1 containing the choline derivative
Experimental: The choline derivative supplemented “LE” lipid emulsions were prepared as follows. In a first step, raw phases are heated up. In case of the oil phase, soybean and olive oils and egg phosphatide as well as DHA and ARA oils and vitamin E in case of Step #3 experiments are heated in an inox beaker to 75° C. under N2 protection while continuously agitating using an ULTRA TURRAX®. The aqueous phase was prepared by mixing glycerol, sodium oleate and Milli-Q water and constantly heated in an inox beaker to about 75° C. under N2 protection. Where needed, the choline derivative is added under constant agitation. In a second step, the pre-emulsion is prepared by adding the oily phase to the aqueous phase using a peristaltic pump under continuous agitation and then transferred to a high shear inline disperser (e.g. DISPAX REACTOR® DR). The receiving vessel is closed and flushed with nitrogen. In a third step the pre-emulsion is homogenized by passing it several times through a high-pressure homogenizer at 600 bar and a temperature of about 50° C., under a N2 atmosphere.
The emulsion is then adjusted to the required volume (2 L) with Milli-Q water and cooled down to a temperature of approximately 18 to 28° C., preferably 20° C. to 25° C. The pH is adjusted to a range of from 7.8 to 8.8, preferably to about 8.3 to 8.8 with 0.IN NaOH. The emulsion is filtered with a 4.5 μm filter and transferred in 100 mL bags, which are then overpouched, making use of an oxygen absorber/indicator, for later use. The lipid emulsion is then autoclaved at 121° C. to achieve a F0 of at least 15 minutes.

[5] = LE 10% with choline derivative alone (no DHA, ARA), high (31 mmol/L) and low (15 mmol/L) concentration

| Compound | development of ALT activity from day 5 to day 17 (FIG. 2) [1] | histopathological examination of the liver, vacuolation (FIG. 4A) ([2]; LE 10% with choline derivative alone, low concentration, 15 mmol/L) | liver to body weight ratio in percent (FIG. 5) [3] | Stability upon sterilization (Comment) ([4]; Concentration 30 mmol/L, lipid emulsion tested LE 10 %) | stability of the lipid emulsions during sterilization (heat), in words [4] | histopathological examination of the liver, vacuolation (FIG. 4A) [2, 5] | Stability upon sterilization (Comment) ([4]; Concentration 15 mmol/L, lipid emulsions tested LE 10, 13, 20 %) | liver status of the animal, in words ([2]; After 15 days into parenteral nutrition, Step #3, LE 13%, versus saline solution) | Vacuolation; hepatocellular, Grade 2, number of animals ([2]; Day 8, Step #3, phytosterol depleted LE 13%, GPC 40 mmol/L where present, 5 animals per group, Grade 2 = slight/few/small vacuoles) | Vacuolation; hepatocellular, Grade 3, number of animals ([2]; Day 8, Step #3, phytosterol depleted LE 13%, GPC 40 mmol/L where present, 5 animals per group, Grade 3 = moderate vacuoles) | Vacuolation; hepatocellular, Grade 4, number of animals ([2]; Day 8, Step #3, phytosterol depleted LE 13%, GPC 40 mmol/L where present, 5 animals per group, Grade 4 = marked/many/large vacuoles) | Vacuolation; hepatocellular, Grade 5, number of animals ([2]; Day 8, Step #3, phytosterol depleted LE 13%, GPC 40 mmol/L where present, 5 animals per group, Grade 5 = severe, diffuse, all liver regions) | Stability upon sterilization (Comment) ([4]; Concentration 30 mmol/L, lipid emulsions tested LE 10, 20 %) | ALT activity, change in percent of the normal value for plasma (FIG. 3) ([1]; Step #3, LE 10% normal phytosterol without GPC, LE 10% + GPC 40 mmol/L, LE 13% reduced phytosterol + GPC 40 mmol/L) |
| --- | --- | --- | --- | --- | --- | --- | --- | --- | --- | --- | --- | --- | --- | --- |
| C[N+](C)(C)CCOP(=O)(O)OP(=O)([O-])OC[C@H]1O[C@@H](n2ccc(N)nc2=O)[C@H](O)[C@@H]1O [CDP-choline, cytidine diphosphate-choline, reference compound] | neither significantly increases or decreases | also had an effect | reduction of the ratio | Phase separation | phase separation of the lipid emulsions during sterilization |  |  |  |  |  |  |  |  |  |
| C[N+](C)(C)CCO.[Cl-] [Choline Chloride, (2-Hydroxyethyl)trimethylammonium chloride, reference compound] | neither significantly increases or decreases |  | reduction of the ratio |  | phase separation of the lipid emulsions during sterilization | fared better than those with only saline or lipid emulsion without any choline derivative | Phase separation |  |  |  |  |  |  |  |
| C[N+](C)(C)CCOP(=O)([O-])OC[C@H](O)CO [GPC, glycerophosphocholine] | clear drop in ALT activity; also recorded: most pronounced |  | most pronounced reduction of the ratio |  | remained stable | most significant impact; also recorded: significantly better |  | clear and significant improvement of the liver status | one | one | Three | none | Stable emulsion |  |
| phosphatidylcholine | does not seem to have any effect |  | does not seem to have any effect |  |  |  |  |  |  |  |  |  |  | does not seem to have any effect |
